Data from patent US20010055627A1, “Compositions And Methods For Regulating Lipoproteins And Hypercholesterolemia With Limonoids, Flavonoids And Tocotrienols” (priority 1997, published 2001).
In brackets after ≈: the same amount, converted by molar mass. Like-named read-outs stand apart in the source and are kept apart here. Blank lines part the entries; values can stand above or below the compound they belong to.

Legend:
[1] = tested on: apo-B production in HepG2 cells; experiment: Apo-B content of medium of HepG2 cells by ELISA; assay type: cell-based, human; conditions: for reduction of medium apo-B levels / effect on apo-B levels/content: HepG2, 24 h; for reduction of medium apo-B levels: 50 μg/mL, per mg cell protein, versus control
Procedure: Cell Culture: Confluent HepG2 cells were preincubated in minimum essential medium (MEM) containing 1.0% bovine serum albumin (BSA) for 24 hours. This was followed by a second 24 hour incubation with or without various non-toxic concentrations of naringenin or hesperitin (7.5-60 ug/ml). At the end of the second 24 hour incubation, the apo-B content of the media was determined by enzyme-lined immunosorbent assay (ELISA) (Young et al., 1986, Clin. Chem. 32:1484-1490).
Protein Determination: The soluble cellular protein was extracted and measured using Pierce Coomassie Plus Protein Assay.
(§1) The limonoids, limonin and nomilin were examined for the cholesterol-lowering potential in HepG2 cells. Confluent HepG2 cells were preincubated for 24 h in a lipoprotein-free medium in which the fetal bovine serum was replaced by albumin to inhibit cell proliferation and to stimulate synthesis of cholesterol-containing lipoproteins. Cells were subsequently incubated for another 24 h in the same medium in the presence or absence of limonoids at the highest concentrations sustaining 100% cell viability, as determined by 3-(4,5-dimethylthiazol-2-yl)-2,5-diphenyltetrazolium bromide (MTT) viability assay. The limonoids were added to the cell culture medium after solubilization in dimethyl sulfoxide (DMSO). At the end of the incubation, culture media were collected and the concentration of the LDL structural protein, apo-B, was measured by Elisa by procedures already described in Section 6.0. Amount of lipoprotein-associated apo-B in the media (net apo-B secretion) was determined as described previously, calculated per mg cell protein and expressed as percent of control.
Apo-B productioon (the structural protein of LDL) was studied in HepG2 cells, using a 24. The effect of flavonoids on apo-B production after 24 h incubation of cells and measuring apo-B by Elisa as described above. All flavonoids, reduced the apo-B levels dose dependently.

[2] = tested on: casein-induced hypercholesterolemia; experiment: Serum lipoprotein cholesterol in rabbits fed cholesterol-free casein diet with citrus juice; assay type: in vivo; conditions: rabbits on casein diet, 3 weeks; hesperitin given as orange juice, naringenin as grapefruit juice (two times regular strength)
From the text: The effect of naringenin and hesperetin on casein-induced hypercholesterolemia was studied in rabbits. In each of the two experiments, rabbits were assigned to thee experimental groups. Each group was given semipurified, cholesterol-free casein diet and either water, orange juice or grapefruit juice to drink. The control group received water to drink and the experimental groups were given either orange juice or grapefruit juice (reconstituted concentrates made up to two times the regular strength). […] FIG. 1 depicts the design of the experiment.
Dextrose in the diets of the hesperitin (orange juice) and naringenin (grapefruit juice) groups was reduced to account for the sugar consumed via citrus juices. All other dietary components were left unchanged. (Table 1).
Serum Analysis: At the end of the study, VLDL, LDL and HDL fractions were separated by discontinuous density gradient ultracentrifugation. Total cholesterol in serum and in each lipoprotein fraction were measured using the Boehinger Manheim CHOL kit (Manheim, Germany).

[3] = tested on: hamster model of experimental hypercholesterolemia; experiment: Serum lipids in hamster model of experimental hypercholesterolemia (casein, cholesterol-enriched diet); assay type: in vivo, Golden Syrian hamsters; conditions: hamsters; for HDL cholesterol (serum) / Total cholesterol (serum) / Total triacylglycerols (serum) / VLDL + LDL Cholesterol (serum) / VLDL + LDL/HDL cholesterol ratio: 35 days on diet; for HDL cholesterol (serum) / Total cholesterol (serum) / Total triacylglycerols (serum): supplement level as in label; for HDL cholesterol (serum) / Total cholesterol (serum) / VLDL + LDL Cholesterol (serum) / VLDL + LDL/HDL cholesterol ratio: mean; for Total triacylglycerols (serum): means ± SD; for VLDL + LDL Cholesterol (serum): difference between total and HDL cholesterol
Procedure: Extracted flavonoids and a tocotrienol-rich preparation from palm oil, all provided by KGK Synergize Inc. London, Ontario, were tested in the hamster model of experimental hypercholesterolemia. The purpose of the study was to establish whether in this model, 2% supplementation of casein diet with palm tocotrienol preparation containing 70% of pure tocotrienols α-, γ- and δ-(TTP), or a similar 2% supplementation with flavonoids, hesperidin extrated from oranges and naringin extrated from grapefruit, could lower the elevated LDL cholesterol levels induced by casein. A further purpose of the study was to determine whether supplementation with 2% TTP in combination with 2% hesperidin or 2% naringin could result in synergistic cholesterol-lowering effects. Synergistic cholesterol-lowering responses have been observed for combinations of tocotrienols and citrus flavonoids in human liver cell line HepG2. The additional goal of this study was to establish whether in the same hamster model of hypercholesterolemia, 0.13% supplementation of casein diet with a mixture of polymethoxylated flavones from tangerines (PMF) could lower the elevated LDL cholesterol levels induced by casein. This experiment was based on previous tests In vitro using human liver cell line HepG2, in which principal flavonoids from PMF, tangeretin and nobiletin, had much greater cholesterol-lowering potential than hesperetin or naringenin.
In hamsters, feeding a semipurified, casein-based, cholesterol-enriched diet for the period of 5 weeks induces experimental hypercholesterolemia associated with elevation of LDL cholesterol, similar to that observed in humans.
(§2) Fifty four male Golden Syrian hamsters weighing 100-120 g at arrival were housed individually in a constant temperature 21-24° C. and with 12 h light:dark cycle. The animals were fed ground chow diet for 1 week. Thereafter, they were divided into seven groups (six groups of 8 animals and one group of 6 animals), each with similar average body weight, and fed experimental diets for 35 days. Food and water were provided at libitum. Food consumption was estimated during the last two weeks of treatment, for thee consecutive days during each week.
(§3) The basal composition was similar to that described earlier. All diets contained 25% casein and 0.1% cholesterol. Experimental diets contained TTP and/or principal flavonoids, hesperidin or naringenin, added at indicated levels at the expense of rice flour.
At the end of the study, the animals were fasted overnight and blood samples were taken by heart puncture. Total cholesterol in whole serum and in HDL fraction as well as total triacylglycerols were measured by enzymatic timed-endpoint methods, using the Beckman Coulter reagents (CHOL Reagent, HDLD HDL Reagent and TG Triglycerides GPO Reagent, respectively). All measurements were performed using SYNCHON LX System. VLDL+LDL cholesterol concentrations were calculated as a difference between total and HDL cholesterol. Results obtained were analyzed by one-way ANOVA followed by Dunnet's or Student-Newman-Keuls test for all groups and additionally by t-test for the PMF vs. the control group. Significant differences were reported at p<0.05.

[4] = Growth performance of hamsters fed experimental diets; assay type: in vivo, Golden Syrian hamsters; conditions: supplement level as in label, means ± SD; for Growth Rate: diet for 35 days; for Food Consumption: last two weeks of treatment
Procedure: as §2, §3

[5] = tested on: HepG2 cells; experiment: MTT viability assay, highest non-toxic concentration; assay type: cell-based, human; conditions: HepG2, 100% cell viability by MTT
Procedure: as §1

[6] = tested on: 14C-acetate incorporation into cellular lipids in HepG2 cells; experiment: 14C-acetate incorporation into cellular lipids of HepG2 cells; assay type: cell-based, human; conditions: HepG2, 24 h, 50 μg/ml (highest non-toxic concentration)
Procedure: ^14C-acetate Incorporation: To determine whether exposure to flavonoids can also alter intracellular lipid metabolism, confluent HepG2 cells were incubated for 24 hours with the highest apo-B-reducing, non-toxic concentration of these flavonoids, in the presence of ^14C-acetate (0.5u Ci/ml medium). Radiolabelled lipids were then extracted from cells using heptane/isopropyl alcohol (3:2, v/v), and separated by thin layer chomatrography. A hexane/ethyl ether/acetic acid solvent (75:25:1, v/v) was used to separate cholesterol, cholesterol esters and triglycerides. Lipid fractions were scraped into scintillation vials and the radioactivity was measured using Beckman Scintillation Counter.
To determine whether exposure to limonin altered intracellular lipid metabolism, confluent HepG2 cells were incubated for 24 h with or without the highest non-cytotoxic concentration of limonin. During the last 5 h of the incubation, ^14C-acetate (0.5 μCi/mL) was added to the medium. The extraction and separation of cellular lipids was done described above.

[7] = Homo sapiens, HepG2, comparison of limonin and flavonoids, FIG. 5, read-out: IC50 apo-B content
[8] = five weeks, versus control diet, 2% in diet (PMF 0.13%)

SMILES: CC(=O)O[C@H]1CC(=O)OC(C)(C)[C@@H]2CC(=O)[C@]3(C)[C@H](CC[C@@]4(C)[C@H](c5ccoc5)OC(=O)[C@H]5O[C@]543)[C@@]12C [nomilin]
- reduction of medium apo-B levels [1]: 40%

- IC50 ([1]; Homo sapiens, HepG2, 24 h incubation, ELISA, read-out: IC50 apo-B production): 48.5 µg/mL
- IC50 [1, 7]: 48.5 µM
SMILES: O=C1C[C@@H](c2ccc(O)cc2)Oc2cc(O)cc(O)c21 [naringenin]
- reduction of LDL cholesterol levels compared with those given water [2]: 32%
- effect on apo-B levels/content [1]: reduced the apo-B content in a dose-dependent manner

- IC50 apo-B production ([1]; HepG2, 24 h incubation, ELISA): 4.9 µg/mL (≈ 12.2 µM)
SMILES: COc1ccc(-c2cc(=O)c3c(OC)c(OC)c(OC)c(OC)c3o2)cc1OC [nobiletin]

SMILES: C[C@@H]1O[C@@H](O[C@H]2[C@H](Oc3cc(O)c4c(c3)O[C@H](c3ccc(O)cc3)CC4=O)O[C@H](CO)[C@@H](O)[C@@H]2O)[C@H](O)[C@H](O)[C@H]1O [naringin]
- HDL cholesterol (serum) [3]: 3.89 mM/L
- Total cholesterol (serum) [3]: 6.56 mM/L
- Total triacylglycerols (serum) [3]: 3.58 ± 1.40 mM/L
- VLDL + LDL Cholesterol (serum) [3]: 2.66 mM/L
- VLDL + LDL/HDL cholesterol ratio [3]: 0.68
- Percent change HDL cholesterol ([3]; 35 days, versus control diet): −11%
- Percent change Total cholesterol ([3]; 35 days, versus control diet): −11%
- Percent change VLDL + LDL Cholesterol ([3]; 35 days, versus control diet): −12%
- reduction of serum HDL cholesterol [3, 8]: 11%
- reduction of serum total cholesterol [3, 8]: 11%
- Growth Rate [4]: 1.03 ± 0.26 g/day
- Food Consumption [4]: 10.44 ± 2.36 g/day

- IC50 concentration times lower than for both flavonoids (hesperetin, naringenin) ([1]; HepG2 apo-B): 2-2.4 times
- IC50 [1, 7]: 20.5 µM
SMILES: CC1(C)O[C@H]2CC(=O)OC[C@]23[C@H]2CC[C@@]4(C)[C@H](c5ccoc5)OC(=O)[C@H]5O[C@]54[C@]2(C)C(=O)C[C@@H]13 [limonin]
- highest non-toxic concentration [5]: 50 µg/mL
- effect on 14C-acetate incorporation into cellular cholesterol, cholesteryl esters and triacylglycerols [6]: no effect
- effect on apo-B levels/content [1]: reduced the apo-B content in a dose-dependent manner
- reduction of medium apo-B levels [1]: 74%

SMILES: COc1ccc([C@@H]2CC(=O)c3c(O)cc(O)cc3O2)cc1O [hesperetin]
- reduction of LDL cholesterol levels compared with those given water [2]: 43%
- effect on apo-B levels/content [1]: reduced the apo-B content in a dose-dependent manner
- IC50 apo-B production ([1]; HepG2, 24 h incubation, ELISA): 43.0 µg/mL (≈ 142 µM)
- IC50 ([1]; HepG2, comparison of limonin and flavonoids, FIG. 5, read-out: IC50 apo-B content): 43 µM

SMILES: COc1ccc([C@@H]2CC(=O)c3c(O)cc(O[C@@H]4O[C@H](CO[C@@H]5O[C@@H](C)[C@H](O)[C@@H](O)[C@H]5O)[C@@H](O)[C@H](O)[C@H]4O)cc3O2)cc1O [hesperidin]
- HDL cholesterol (serum) [3]: 4.07 mM/L
- Total cholesterol (serum) [3]: 6.73 mM/L
- Total triacylglycerols (serum) [3]: 2.64 ± 1.47 mM/L
- VLDL + LDL Cholesterol (serum) [3]: 2.66 mM/L
- VLDL + LDL/HDL cholesterol ratio [3]: 0.66
- Percent change HDL cholesterol ([3]; 35 days, versus control diet): −7%
- Percent change Total cholesterol ([3]; 35 days, versus control diet): −9%
- Percent change Total triacylglycerols ([3]; 35 days, versus control diet): −36%
- Percent change VLDL + LDL Cholesterol ([3]; 35 days, versus control diet): −12%
- reduction of serum HDL cholesterol [3, 8]: 7%
- reduction of serum total triacylglycerols [3, 8]: 36%
- Growth Rate [4]: 0.98 ± 0.24 g/day
- Food Consumption [4]: 13.15 ± 4.72 g/day

SMILES: COc1ccc(-c2cc(=O)c3c(OC)c(OC)c(OC)c(OC)c3o2)cc1 [tangeretin]
- IC50 apo-B production ([1]; HepG2, 24 h incubation, ELISA): 2.5 µg/mL (≈ 6.71 µM)
